Results: article PMC10025235, “Pharmacological and mechanistic study of PS1, a Pdia4 inhibitor, in β-cell pathogenesis and diabetes in db/db mice” (Cellular and Molecular Life Sciences: CMLS, 2023)
pIC50: −log10 of the molar value.

Biological target: T1, Pdia4 (Mus musculus, UniProt P08003)
T1 construct: recombinant Pdia4; Flag-Pdia4 plasmid used in Min6 cells
T1 sequence (P08003 21-638): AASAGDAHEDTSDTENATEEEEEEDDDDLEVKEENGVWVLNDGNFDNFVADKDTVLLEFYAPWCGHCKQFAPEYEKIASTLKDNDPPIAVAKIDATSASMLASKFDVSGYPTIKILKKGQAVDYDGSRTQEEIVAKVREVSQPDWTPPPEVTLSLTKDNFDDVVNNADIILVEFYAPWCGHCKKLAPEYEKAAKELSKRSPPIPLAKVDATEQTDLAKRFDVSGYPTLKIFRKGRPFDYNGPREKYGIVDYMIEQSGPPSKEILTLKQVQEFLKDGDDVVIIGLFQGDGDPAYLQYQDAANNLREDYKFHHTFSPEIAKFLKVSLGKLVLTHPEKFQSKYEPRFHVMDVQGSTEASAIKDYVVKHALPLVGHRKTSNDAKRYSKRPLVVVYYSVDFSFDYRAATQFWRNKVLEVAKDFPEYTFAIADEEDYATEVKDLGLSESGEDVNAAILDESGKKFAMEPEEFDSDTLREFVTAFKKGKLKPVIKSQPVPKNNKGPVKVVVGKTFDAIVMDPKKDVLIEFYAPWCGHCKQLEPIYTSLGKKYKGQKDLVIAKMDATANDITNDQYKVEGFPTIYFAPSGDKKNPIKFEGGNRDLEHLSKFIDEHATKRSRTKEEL
Experiment: insulin reduction turbidity assay, […] nm
Format: biochemical
Settings: insulin substrate; 25 °C; 30 min

pIC50: 5.40
Substance: PS1
